Earlier results, collected in patent publication US20080171790A1, “Fatty acids-systemic lipid solubilizers conjugates” (priority 2007, published 2008).

Settings: after oral administration

proportion of the administered substance excreted in the urine as a glucuronide: up to 84%
Structure (SMILES): C[C@H](CCC(=O)O)[C@H]1CC[C@H]2[C@@H]3C[C@H](O)[C@@H]4C[C@H](O)CC[C@]4(C)[C@H]3CC[C@]12C [hyodeoxycholic acid, Hyodeoxycholic acid]
